Assay results: ChEMBL document CHEMBL3045391, “Synthesis and biological evaluation of 5,7-diaryl-4,4-dimethyl-4,5,6,7-tetrahydropyridino[3,4-d]-1,2,3-thiadiazoles” (2007)
Calls of active or inactive are those of the source. No cut-off for these calls is given here.

Tests used:
[1] = system: Nannizzia gypsea; assay: Antifungal activity against Microsporum gypseum at 500 ppm after 72 to 96 hr by disk diffusion method; format: functional; details: read-out: IZ
[2] = system: Streptococcus; assay: Antibacterial activity against beta-hemolytic Streptococcus at 500 ppm after 24 hr by disk diffusion method; format: functional; details: read-out: IZ
[3] = system: Streptococcus; assay: Antibacterial activity against beta-hemolytic Streptococcus at 200 ppm after 24 hr by disk diffusion method; format: functional; details: read-out: IZ
[4] = system: Salmonella typhi; assay: Antibacterial activity against Salmonella enterica subsp. enterica serovar Typhi at 100 ppm after 24 hr by disk diffusion method; format: functional; details: for zone of inhibition at 100 ppm: read-out: IZ
[5] = system: Streptococcus; assay: Antibacterial activity against beta-hemolytic Streptococcus at 100 ppm after 24 hr by disk diffusion method; format: functional, organism-based
[6] = system: Rhizopus; assay: Antifungal activity against Rhizopus at 500 ppm after 72 to 96 hr by disk diffusion method; format: functional; details: read-out: IZ
[7] = system: Aspergillus flavus; assay: Antifungal activity against Aspergillus flavus at 500 ppm after 72 to 96 hr by disk diffusion method; format: functional; details: read-out: IZ
[8] = system: Pseudomonas; assay: Antibacterial activity against Pseudomonas at 500 ppm after 24 hr by disk diffusion method; format: functional; details: read-out: IZ
[9] = system: Shigella flexneri; assay: Antibacterial activity against Shigella flexneri at 100 ppm after 24 hr by disk diffusion method; format: functional; details: read-out: IZ
[10] = system: Salmonella typhi; assay: Antibacterial activity against Salmonella enterica subsp. enterica serovar Typhi at 200 ppm after 24 hr by disk diffusion method; format: functional; details: read-out: IZ
[11] = system: Mucor; assay: Antifungal activity against Mucor at 100 ppm after 72 to 96 hr by disk diffusion method; format: functional
[12] = system: Vibrio cholerae; assay: Antibacterial activity against Vibrio cholerae at 200 ppm after 24 hr by disk diffusion method; format: functional; details: read-out: IZ
[13] = system: Escherichia coli; assay: Antibacterial activity against Escherichia coli at 200 ppm after 24 hr by disk diffusion method; format: functional; details: read-out: IZ
[14] = system: Shigella flexneri; assay: Antibacterial activity against Shigella flexneri at 200 ppm after 24 hr by disk diffusion method; format: functional; details: read-out: IZ
[15] = system: Salmonella typhi; assay: Antibacterial activity against Salmonella enterica subsp. enterica serovar Typhi at 500 ppm after 24 hr by disk diffusion method; format: functional; details: read-out: IZ
[16] = system: Staphylococcus aureus; assay: Antibacterial activity against Staphylococcus aureus at 100 ppm after 24 hr by disk diffusion method; format: functional; details: for zone of inhibition at 100 ppm: read-out: IZ
[17] = system: Escherichia coli; assay: Antibacterial activity against Escherichia coli at 100 ppm after 24 hr by disk diffusion method; format: functional, organism-based
[18] = system: Rhizopus; assay: Antifungal activity against Rhizopus at 100 ppm after 72 to 96 hr by disk diffusion method; format: functional
[19] = system: Shigella flexneri; assay: Antibacterial activity against Shigella flexneri at 500 ppm after 24 hr by disk diffusion method; format: functional; details: read-out: IZ
[20] = system: Klebsiella pneumoniae; assay: Antibacterial activity against Klebsiella pneumoniae at 200 ppm after 24 hr by disk diffusion method; format: functional; details: read-out: IZ
[21] = system: Nannizzia gypsea; assay: Antifungal activity against Microsporum gypseum at 100 ppm after 72 to 96 hr by disk diffusion method; format: functional; details: read-out: IZ
[22] = system: Vibrio cholerae; assay: Antibacterial activity against Vibrio cholerae at 500 ppm after 24 hr by disk diffusion method; format: functional; details: read-out: IZ
[23] = system: Aspergillus flavus; assay: Antifungal activity against Aspergillus flavus at 100 ppm after 72 to 96 hr by disk diffusion method; format: functional; details: read-out: IZ
[24] = system: Aspergillus flavus; assay: Antifungal activity against Aspergillus flavus at 200 ppm after 72 to 96 hr by disk diffusion method; format: functional; details: read-out: IZ
[25] = system: Rhizopus; assay: Antifungal activity against Rhizopus at 200 ppm after 72 to 96 hr by disk diffusion method; format: functional; details: read-out: IZ
[26] = system: Escherichia coli; assay: Antibacterial activity against Escherichia coli at 500 ppm after 24 hr by disk diffusion method; format: functional; details: read-out: IZ
[27] = system: Pseudomonas; assay: Antibacterial activity against Pseudomonas at 200 ppm after 24 hr by disk diffusion method; format: functional; details: read-out: IZ
[28] = system: Klebsiella pneumoniae; assay: Antibacterial activity against Klebsiella pneumoniae at 100 ppm after 24 hr by disk diffusion method; format: functional; details: read-out: IZ
[29] = system: Mucor; assay: Antifungal activity against Mucor at 200 ppm after 72 to 96 hr by disk diffusion method; format: functional; details: read-out: IZ
[30] = system: Klebsiella pneumoniae; assay: Antibacterial activity against Klebsiella pneumoniae at 500 ppm after 24 hr by disk diffusion method; format: functional; details: read-out: IZ
[31] = system: Pseudomonas; assay: Antibacterial activity against Pseudomonas at 100 ppm after 24 hr by disk diffusion method; format: functional
[32] = system: Mucor; assay: Antifungal activity against Mucor at 500 ppm after 72 to 96 hr by disk diffusion method; format: functional; details: read-out: IZ
[33] = system: Staphylococcus aureus; assay: Antibacterial activity against Staphylococcus aureus at 200 ppm after 24 hr by disk diffusion method; format: functional; details: read-out: IZ
[34] = system: Staphylococcus aureus; assay: Antibacterial activity against Staphylococcus aureus at 500 ppm after 24 hr by disk diffusion method; format: functional; details: read-out: IZ
[35] = system: Vibrio cholerae; assay: Antibacterial activity against Vibrio cholerae at 100 ppm after 24 hr by disk diffusion method; format: functional; details: read-out: IZ
[36] = system: Nannizzia gypsea; assay: Antifungal activity against Microsporum gypseum at 200 ppm after 72 to 96 hr by disk diffusion method; format: functional; details: read-out: IZ

Compound	zone of inhibition at 500 ppm [1] [mm]	zone of inhibition at 500 ppm [2] [mm]	zone of inhibition at 200 ppm [3] [mm]	inhibition zone (IZ) [5]	zone of inhibition at 500 ppm [6] [mm]	zone of inhibition at 500 ppm [7] [mm]	zone of inhibition at 500 ppm [8] [mm]	zone of inhibition at 100 ppm [9] [mm]	zone of inhibition at 200 ppm [10] [mm]	zone of inhibition at 200 ppm [12] [mm]	zone of inhibition at 200 ppm [13] [mm]	zone of inhibition at 200 ppm [14] [mm]	zone of inhibition at 500 ppm [15] [mm]	inhibition zone (IZ) [17]	zone of inhibition at 500 ppm [19] [mm]	zone of inhibition at 200 ppm [20] [mm]	zone of inhibition at 100 ppm [21] [mm]	zone of inhibition at 500 ppm [22] [mm]	zone of inhibition at 100 ppm [23] [mm]	zone of inhibition at 200 ppm [24] [mm]	other results
CC1(C)c2nnsc2C(c2ccc(Cl)cc2)NC1c1ccc(Cl)cc1 (stereo not drawn)	22	30	12	inactive	22	17	12	12	17	12	12	12	17	inactive	12	17	12	12	12	12	inhibition zone (IZ) [4]: inactive; inhibition zone (IZ) [11]: inactive; zone of inhibition at 100 ppm [16]: 12 mm; inhibition zone (IZ) [18]: inactive; zone of inhibition at 200 ppm [25]: 12 mm; zone of inhibition at 500 ppm [26]: 17 mm; zone of inhibition at 200 ppm [27]: 12 mm; zone of inhibition at 100 ppm [28]: 12 mm; zone of inhibition at 200 ppm [29]: 12 mm; zone of inhibition at 500 ppm [30]: 22 mm; inhibition zone (IZ) [31]: inactive; zone of inhibition at 500 ppm [32]: 12 mm; zone of inhibition at 200 ppm [33]: 22 mm; zone of inhibition at 500 ppm [34]: 30 mm; zone of inhibition at 100 ppm [35]: 12 mm; zone of inhibition at 200 ppm [36]: 17 mm
CC1(C)c2nnsc2C(c2ccc(F)cc2)NC1c1ccc(F)cc1 (stereo not drawn)	30	22	17	inactive	22	17	17	12	12	17	17	17	12	inactive	17	17	17	17	12	17	zone of inhibition at 100 ppm [4]: 12 mm; inhibition zone (IZ) [11]: inactive; inhibition zone (IZ) [16]: inactive; zone of inhibition at 100 ppm ([18]; read-out: IZ): 12 mm; zone of inhibition at 200 ppm [25]: 22 mm; zone of inhibition at 500 ppm [26]: 17 mm; zone of inhibition at 200 ppm [27]: 17 mm; zone of inhibition at 100 ppm [28]: 17 mm; zone of inhibition at 200 ppm [29]: 17 mm; zone of inhibition at 500 ppm [30]: 22 mm; inhibition zone (IZ) [31]: inactive; zone of inhibition at 500 ppm [32]: 17 mm; zone of inhibition at 200 ppm [33]: 22 mm; zone of inhibition at 500 ppm [34]: 30 mm; zone of inhibition at 100 ppm [35]: 12 mm; zone of inhibition at 200 ppm [36]: 22 mm
COc1ccc(C2NC(c3ccc(OC)cc3)C(C)(C)c3nnsc32)cc1 (stereo not drawn)	30	30	12	inactive	22	17	12	12	17	17	17	17	17	inactive	17	17	12	17	12	12	zone of inhibition at 100 ppm [4]: 12 mm; zone of inhibition at 100 ppm ([11]; read-out: IZ): 12 mm; zone of inhibition at 100 ppm [16]: 12 mm; inhibition zone (IZ) [18]: inactive; zone of inhibition at 200 ppm [25]: 12 mm; zone of inhibition at 500 ppm [26]: 17 mm; zone of inhibition at 200 ppm [27]: 12 mm; zone of inhibition at 100 ppm [28]: 17 mm; zone of inhibition at 200 ppm [29]: 17 mm; zone of inhibition at 500 ppm [30]: 22 mm; inhibition zone (IZ) [31]: inactive; zone of inhibition at 500 ppm [32]: 17 mm; zone of inhibition at 200 ppm [33]: 22 mm; zone of inhibition at 500 ppm [34]: 30 mm; zone of inhibition at 100 ppm [35]: 12 mm; zone of inhibition at 200 ppm [36]: 17 mm
